We go through eight compounds from patent US7569568B2, “Cytokine inhibitors” (Boehringer Ingelheim Pharmaceuticals, Inc., priority 2002, dated 2009).

The term melting point denotes the temperature of the solid-liquid transition. Compound `COc1c(NC(=O)c2ccc(C)c(-n3nnc(C(=O)NCC(C)(C)C)c3N)c2)cc(C(C)(C)C)cc1NS(C)(=O)=O` [Example 68, 5-amino-1-[5-(5-tert-butyl-3-methanesulfonylamino-2-methoxy-phenylcarbamoyl)-2-methyl-phenyl]-1H-1,2,3-triazole-4-carboxylic acid (2,2-dimethyl-propyl)-amide] displayed a melting point of 189 to 193 °C.
In the case of `COC(=O)c1cn(-c2cc(C(=O)Nc3cc(C(C)(C)C)cc(NS(C)(=O)=O)c3OC)ccc2Cl)nn1` [Example 8, 1-[5-(5-tert-butyl-3-methanesulfonylamino-2-methoxyphenyl-carbamoyl)-2-chloro-phenyl]-1H-1,2,3-triazole-4-carboxylic acid methyl ester], the melting point was 251 to 252 °C (dec.).
To `COC(=O)c1cn(-c2cc(C(=O)Nc3cc(C(C)(C)C)cc(NS(C)(=O)=O)c3OC)ccc2C)nn1` [Example 1, 1-[5-(5-tert-butyl-3-methanesulfonylamino-2-methoxy-phenylcarbamoyl)-2-methyl-phenyl]-1H-1,2,3-triazole-4-carboxylic acid methyl ester] belongs 198 °C; to `COc1c(NC(=O)c2ccc(C)c(-n3cc(C(=O)NCc4ccccc4)nn3)c2)cc(C(C)(C)C)cc1NS(C)(=O)=O` [Example 24, 1-[5-(5-tert-butyl-3-methanesulfonylamino-2-methoxy-phenylcarbamoyl)-2-methyl-phenyl]-1H-1,2,3-triazole-4-carboxylic acid benzylamide], 205 to 207 °C; to `COc1c(NC(=O)c2cc(C)c(C)c(-n3cc(C(=O)NCCN4CCOCC4)nn3)c2)cc(C(C)(C)C)cc1NS(C)(=O)=O` [Example 28, 1-[5-(5-tert-butyl-3-methanesulfonylamino-2-methoxy-phenylcarbamoyl)-2,3-dimethyl-phenyl]-1H-1,2,3-triazole-4-carboxylic acid (2-morpholin-4-yl-ethyl)-amide], 206 to 209 °C (dec.).
As for `COC(=O)c1nnn(-c2cc(C(=O)Nc3cc(C(C)(C)C)cc(NS(C)(=O)=O)c3OC)ccc2C)c1N` [Example 9, 5-amino-1-[5-(5-tert-butyl-3-methanesulfonylamino-2-methoxy-phenylcarbamoyl)-2-methyl-phenyl]-1H-1,2,3-triazole-4-carboxylic acid methyl ester], the melting point lay within 204 to 205 °C.
To `COc1c(NC(=O)c2ccc(C)c(-n3cc(C(N)=O)nn3)c2)cc(C(C)(C)C)cc1NS(C)(=O)=O` [Example 66, 1-[5-(5-tert-butyl-3-methanesulfonylamino-2-methoxyphenyl-carbamoyl)-2-methyl-phenyl]-1H-1,2,3-triazole-4-carboxylic acid amide] belongs greater than 250 °C; to `COC(=O)c1cn(-c2cc(C(=O)Nc3cc(C(C)(C)C)cc(NS(C)(=O)=O)c3OC)cc(C)c2C)nn1` [Example 16, 1-[5-(5-tert-butyl-3-methanesulfonylamino-2-methoxy-phenylcarbamoyl)-2,3-dimethyl-phenyl]-1H-1,2,3-triazole-4-carboxylic acid methyl ester], 199 °C.
